Measured values reported in patent publication US8198456B2, “Dihydropyridine derivatives as useful as protein kinase inhibitors” (Bayer Intellectual Property GmbH, priority 2006, dated 2012).
pIC50: −log10 of the molar value.

Legend:
[1] = target: T1, recombinant human c-MET kinase enzyme domain (Homo sapiens, UniProt P08581); test: c-MET receptor tyrosine kinase Homogeneous Time Resolved Fluorescence assay (HTRF); format: biochemical; conditions: Biological Example 1 and/or Biological Example 2
T1 construct: Recombinant c-Met kinase domain (amino acids 960-1390); His (N); made in house; host or cells: baculovirus expression system (insect cells; SF21 is named only for the alternative format)
How it was run: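 His-tagged c-Met kinase domain (aa 960-1390, baculovirus) phosphorylated biotinylated poly-Glu-Tyr (37 nM) with 20 μM ATP in HEPES pH 7.4, Mg/Mn, DTT, 1% DMSO, 20 min at ambient temperature, EDTA-stopped. HTRF read (PT66-Eu/streptavidin-XL665, 665/620 nm ratio) after 4 h; IC50 from eight 1:3.16 dilutions.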

T1 sequence (P08581 960-1390): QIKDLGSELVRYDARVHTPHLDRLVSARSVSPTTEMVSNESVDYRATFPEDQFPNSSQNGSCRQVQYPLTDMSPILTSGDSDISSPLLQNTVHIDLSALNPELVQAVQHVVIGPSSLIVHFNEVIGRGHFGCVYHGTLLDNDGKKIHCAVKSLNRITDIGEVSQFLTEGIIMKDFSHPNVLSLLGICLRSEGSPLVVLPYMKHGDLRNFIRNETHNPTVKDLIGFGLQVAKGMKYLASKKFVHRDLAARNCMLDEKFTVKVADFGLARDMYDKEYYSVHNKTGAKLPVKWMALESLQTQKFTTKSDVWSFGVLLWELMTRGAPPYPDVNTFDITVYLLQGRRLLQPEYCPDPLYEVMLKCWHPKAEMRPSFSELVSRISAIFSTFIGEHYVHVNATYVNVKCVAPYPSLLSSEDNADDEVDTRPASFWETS

SMILES	pIC50 [1]	melting point
CCNc1n[nH]c2ccc(C3C(C#N)=C(C)NC(C)=C3C#N)cc12 [compound 121, 4-[3-(ethylamino)-1H-indazol-5-yl]-1,4-dihydro-2,6-dimethyl-3,5-pyridinedicarbonitrile]	> 7.00	247.6 °C
CC1=C(C#N)C(c2ccc3[nH]nc(Cl)c3c2)C(C#N)=C(C)N1C [compound 298, 4-(3-chloro-1H-indazol-5-yl)-1,4-dihydro-1,2,6-trimethyl-3,5-pyridinedicarbonitrile]	> 7.00	
CC1=C(C#N)C(c2ccc3[nH]nc(N)c3c2)C(C#N)=C(C)N1CCO [compound 299, 4-(3-amino-1H-indazol-5-yl)-1,4-dihydro-1-(2-hydroxyethyl)-2,6-dimethyl-3,5-pyridinedicarbonitrile]	> 7.00	
CC1=C(C#N)C(c2ccc3[nH]nc(C)c3c2)C(C#N)=C(C)N1C1CC1 [compound 301, 1-cyclopropyl-1,4-dihydro-2,6-dimethyl-4-(3-methyl-1H-indazol-5-yl)-3,5-pyridinedicarbonitrile]	> 7.00	
C#CCN1C(C)=C(C#N)C(c2ccc3[nH]ncc3c2)C(C#N)=C1C [compound 302, 1,4-dihydro-4-(1H-indazol-5-yl)-2,6-dimethyl-1-(2-propynyl)-3,5-pyridinedicarbonitrile]	> 7.00	
CC1=C(C#N)C(c2ccc3[nH]ncc3c2)C(C#N)=C2CCCCN12 (centres unmarked) [compound 304, 6,7,8,9-tetrahydro-2-(1H-indazol-5-yl)-4-methyl-2H-quinolizine-1,3-dicarbonitrile]	> 7.00	

Second part, the compound after the results:

pIC50 [1]	melting point	SMILES
> 7.00		CC1=C(C#N)C(c2ccc3[nH]nc(C)c3c2)C(C#N)=C(C)N1C [compound 306, 1,4-dihydro-1,2,6-trimethyl-4-(3-methyl-1H-indazol-5-yl)-3,5-pyridinedicarbonitrile]
> 7.00		CC1=C(C#N)C(c2ccc3[nH]nc(NCCN4CCOCC4)c3c2)C(C#N)=C(C)N1 [compound 307, 1,4-dihydro-2,6-dimethyl-4-[3-[[2-(4-morpholinyl)ethyl]amino]-1H-indazol-5-yl]-3,5-pyridinedicarbonitrile]
> 7.00		CC1=C(C#N)C(c2ccc3[nH]nc(NCCN)c3c2)C(C#N)=C(C)N1 [compound 308, 4-[3-[(2-aminoethyl)amino]-1H-indazol-5-yl]-1,4-dihydro-2,6-dimethyl-3,5-pyridinedicarbonitrile]
> 7.00		CC1=C(C#N)C(c2ccc3[nH]nc(NCCN4CCCC4)c3c2)C(C#N)=C(C)N1 [compound 309, 1,4-dihydro-2,6-dimethyl-4-[3-[[2-(1-pyrrolidinyl)ethyl]amino]-1H-indazol-5-yl]-3,5-pyridinedicarbonitrile]
